Experimental data from US20080033039A1, “Combination of ceramide and oxaliplatin for inducing cell death and uses thereof in treating cancer” (priority 2006, published 2008).
Where two headings read alike, the source gives them in different places.

Experiments:
[1] = system: L3.6 pancreatic tumor implants; conditions: for Mean Body Weight (g) (Time of Death or Sacrifice): at time of death or sacrifice; for anti-tumor response in combination therapy with C6-ceramide: SCID Mice bearing L3.6 pancreatic tumor implants
Procedure: (§1) In vivo experiments utilized SCID/Beige/Taconic male mice inoculated subcutaneously (S.C.) with 2×10^6 L3.6 pancreatic cells. Chemotherapy dose levels were based on standardized clinical dosing as modified from in vitro data. […] The data recovered included maximum tumor volume, tumor weight, body weight and survival. Histopathology studies were carried out in a separate group of 40 mice treated by the same drug dose levels and autopsied at 4 hours and 24 hours. Tumors were bi-valved and fixed in buffered formalin or frozen in hexane/acetone bath. A major focus was effects on tumor necrosis, apoptosis, mitotic index and caspase 3 index.
SCID/Beige/Taconic male mice, 22-25 g, 6-8 weeks old purchased from Taconic Laboratory (Germantown, N.Y.) were ear tagged and randomized into eight groups of 5 mice each prior to inoculation s.c. with 2×10^6 L3.6 PA cells (46) in a volume 0.1 ml into the internal surface of the right thigh. Treatment was started according to the protocol <0.5 cc> (early 4 days or late 10 days). […] Mice were treated 3 times/week for 4-6 weeks with intraperitoneal injections of chemotherapy at dose levels to be described. Body weight of mice and diameters of tumors were measured every week. Tumor volumes (cm^3) were calculated by formula: V=Higher diameter X (smaller diameter)^2/2 (47-50). At the end of the 6 week observation period surviving mice were euthanized with CO2 inhalation. All the mice were autopsied and tissues were fixed in 10% buffered formalin, embedded in paraffin, and H&E sections of primary tumor, lungs, spleen, liver were examined microscopically. We also analyzed survival rate (%), mean tumor volume (MTV), mean survival time (MST), % mice with primary tumors and final rate of tumor development per survival time (FRTD). The last test was calculated from the MTV and MST: FRTD(cm^3/d)=MTV (cm^3/MST/day).
Our initial dose response studies were done using low dose ceramide 1 mg/kg and oxaliplatin dose levels of 11.0 mg/kg→3.5 mg/kg. […] We next studied the optimum ceramide dose level from 1 mg/kg to 10 mg/kg.

L36 Tumors = assay: Short term (4/24 hrs) histopathology of L3.6 tumors: necrosis, mitotic index, apoptosis (H&E), caspase 3 staining; assay type: in vivo, mice
Procedure: as §1

[2] = IP 3x/wk from day 4, paclitaxel 3.0, oxaliplatin 2.5, cisplatin 0.5 mg/kg, ceramide 10 mg/kg, volumes calculated in cm^3
[3] = same dosing, 6 week observation
[4] = Oxaliplatin at 2.5 mg/kg with low dose ceramide 1 mg/kg

CCCCCCCCCCCCC/C=C/[C@@H](O)[C@H](CO)NC(=O)CCCCC [Ceramide, N-hexanoyl-D-sphingosine]
% Survival @ 3 Weeks [1]: 40% | % Surviving at 3 wks ([1]; table T3): 40% | % Survival @ 6 Weeks [1]: 0% | % Surviving at 6 wks ([1]; table T3): 0% | synergy regarding anti-tumor effect ([1]; Ceramide 10 mg/kg with oxaliplatin 2.5 mg/kg): optimum synergy | enhancement of oxaliplatin by ceramide ([1]; Ceramide at 1 mg/kg with oxaliplatin 2.5 mg/kg): only modest effects | Mean Final Tumor Volume [1, 2]: 1.69 +/− 0.3 | Mean Body Weight (g) (Time of Death or Sacrifice) [1]: 17.0 g | animal weight under combination therapy ([1]; mouse, in vivo): preservation of animal weight | Mean Survival Time [1, 3]: 20.8 ± 1.1 days | Mean Final Tumor Volume ([1]; table T3): 1.69 +/− .03 | Mean Survival Time ([1]; table T3): 20.8 +/− 1.1 | % of Necroses (L36 Tumors; 4 hr after treatment): 30/NA % | Apoptosis Index (L36 Tumors; 4 hrs): 1.6 | Apoptosis N/4000 Cells (L36 Tumors; 4 hrs): 64 N/4000 Cells | Caspase 3 Index (L36 Tumors; 4 hrs): 4.12 | Caspase N/4000 Cells (L36 Tumors; 4 hrs): 165 N/4000 Cells | Difference in Caspase Expression Vs. Control (L36 Tumors; 4 hrs): 155% | Mitotic Index (L36 Tumors; 4 hrs): 0.6% | Apoptosis Index (L36 Tumors; 24 hrs): 1/2 | Apoptosis N/4000 Cells (L36 Tumors; 24 hrs): 46 N/4000 Cells | Caspase 3 Index (L36 Tumors; 24 hrs): 4.25 | Caspase N/4000 Cells (L36 Tumors; 24 hrs): 157 N/4000 Cells | Difference in Caspase Expression Vs. Control (L36 Tumors; 24 hrs): 148% | Mitotic Index (L36 Tumors; 24 hrs): 0/32

N.N.[Cl][Pt][Cl] [Cisplatin]
% Survival @ 3 Weeks [1]: 60% | % Surviving at 3 wks ([1]; table T3): 60% | % Survival @ 6 Weeks [1]: 0% | % Surviving at 6 wks ([1]; table T3): 0% | Mean Final Tumor Volume [1, 2]: 1.83 +/− 0.1 | anti-tumor response in combination therapy with C6-ceramide [1]: significantly enhanced | Mean Body Weight (g) (Time of Death or Sacrifice) [1]: 16.6 g | Mean Survival Time [1, 3]: 25.6 ± 3.2 days | Mean Final Tumor Volume ([1]; table T3): 1.83 +/− 0.1 | Mean Survival Time ([1]; table T3): 25.6 +/− 3.2

O=C1[O][Pt]2([NH][C@@H]3CCCC[C@H]3[NH]2)[O]C1=O [Oxaliplatin]
% Survival @ 3 Weeks [1]: 100% | % Surviving at 3 wks ([1]; table T3): 100% | % Survival @ 6 Weeks [1]: 0% | % Surviving at 6 wks ([1]; table T3): 0% | Mean Final Tumor Volume [1, 2]: 1.76 +/− 0.2 | activity in initial dose response studies [1, 4]: most active | toxicity in initial dose response studies [1, 4]: less toxic than other dose levels | anti-tumor response in combination therapy with C6-ceramide [1]: significantly enhanced | Mean Body Weight (g) (Time of Death or Sacrifice) [1]: 15.6 g | Mean Survival Time [1, 3]: 27.4 ± 2.2 days | Mean Final Tumor Volume ([1]; table T3): 1.76 +/− 0.2 | Mean Survival Time ([1]; table T3): 27.4 +/− 2.2 | % of Necroses (L36 Tumors; 4 hr after treatment): 30% | Apoptosis Index (L36 Tumors; 4 hrs): 1.35 | Apoptosis N/4000 Cells (L36 Tumors; 4 hrs): 54 N/4000 Cells | Caspase 3 Index (L36 Tumors; 4 hrs): 3.5 | Caspase N/4000 Cells (L36 Tumors; 4 hrs): 148 N/4000 Cells | Difference in Caspase Expression Vs. Control (L36 Tumors; 4 hrs): 132% | Mitotic Index (L36 Tumors; 4 hrs): 0.92% | % of Necroses (L36 Tumors; 24 hr after treatment): 10% | Apoptosis Index (L36 Tumors; 24 hrs): 1.28 | Apoptosis N/4000 Cells (L36 Tumors; 24 hrs): 51 N/4000 Cells | Caspase 3 Index (L36 Tumors; 24 hrs): 3/1 | Caspase N/4000 Cells (L36 Tumors; 24 hrs): 123 N/4000 Cells | Difference in Caspase Expression Vs. Control (L36 Tumors; 24 hrs): 121% | Mitotic Index (L36 Tumors; 24 hrs): 0/57

CC(=O)O[C@H]1C(=O)[C@@]2(C)[C@H]([C@H](OC(=O)c3ccccc3)[C@]3(O)C[C@H](OC(=O)[C@H](O)[C@@H](NC(=O)c4ccccc4)c4ccccc4)C(C)=C1C3(C)C)[C@]1(OC(C)=O)CO[C@@H]1C[C@@H]2O [Taxol, Paclitaxel]
% Survival @ 3 Weeks [1]: 60% | % Surviving at 3 wks ([1]; table T3): 60% | % Survival @ 6 Weeks [1]: 0% | % Surviving at 6 wks ([1]; table T3): 0% | Mean Final Tumor Volume [1, 2]: 1.83 +/− 0.4 | anti-tumor response in combination therapy with C6-ceramide [1]: significantly enhanced | Mean Body Weight (g) (Time of Death or Sacrifice) [1]: 17.4 g | Mean Survival Time [1, 3]: 23.0 ± 2.4 days | Mean Final Tumor Volume ([1]; table T3): 1.83 +/− 0.4 | Mean Survival Time ([1]; table T3): 23.0 +/− 2.4 | % of Necroses (L36 Tumors; 4 hr after treatment): 50/NA % | Apoptosis N/4000 Cells (L36 Tumors; 4 hrs): 66 N/4000 Cells | Difference in Caspase Expression Vs. Control (L36 Tumors; 4 hrs): 95%/ ^ | Apoptosis N/4000 Cells (L36 Tumors; 24 hrs): 110 N/4000 Cells
